From patent US12565522B2, “Micropeptide HMMW and application thereof” (NANJING ANJI BIOTECHNOLOGY CO., LTD., priority 2019, dated 2026)
No end group written: not given here.

What was measured:
Assay in all cases: cells
Format in all cases: cell-based, human
Settings in all cases: 1 to 32 μM, vs negative control, dose-dependent
[1] = tested on: A431 cells of skin cancer
Description: (§1) After SCC4 cells of head and neck cancer, SW579 cells of thyroid cancer, A549 cells of lung cancer, TE13 cells of esophageal squamous cell carcinoma, MGC803 cells of stomach cancer, MDA-MB-231 cells of breast cancer, UOK262 cells of kidney cancer and A431 cells of skin cancer of human were cultured in a 37 DEG C. 5% CO2 incubator until the density was 90%, they were digested and collected by trypsin, the cells were re-suspended in a culture solution and counted under a microscope, the concentration of the cells was adjusted to 3.0×10^4 cells/mL, and the cell suspension was inoculated to 96-well plates, 100 μL per well, and cultured in a 37 DEG C. 5% CO2 incubator overnight. After the cells were completely adherent, different doses of micropeptides HMMW I to IX were added as drug groups, taxol was used as a positive control group, and the culture solution without any drug was used as a blank control group. They were diluted with the culture solution till predetermined concentrations. The diluted solutions were added to 96-well plates, respectively, 100 μL per well, and incubated in a 37 DEG C. 5% CO2 incubator for 48 h. 20 μL of 5 mg/mL MTT was added to each well of the 96-well plates, and the culture was continued for 4 h. The culture medium was sucked away, and 100 μL of DMSO was added to each well for dissolution. Absorbance was detected by ELIASA at detection wavelength 570 nm and reference wavelength 630 nm, and proliferation inhibition (PI) was calculated according to Formula PI (%)=1−drug group/negative group. The test was independently repeated three times. The results obtained from the test were expressed with mean±SD and statistical t test was done. *P<0.05 means significant difference, and **P<0.01 means very significant difference.

[2] = tested on: A549 cells of lung cancer
Description: as §1

[3] = tested on: MDA-MB-231 cells of breast cancer
Description: as §1

[4] = tested on: MGC803 cells of stomach cancer
Description: as §1

[5] = tested on: SCC4 cells of head and neck cancer
Description: as §1

[6] = tested on: SW579 cells of thyroid cancer
Description: as §1

[7] = tested on: TE13 cells of esophageal squamous cell carcinoma
Description: as §1

[8] = tested on: UOK262 cells of kidney cancer
Description: as §1

Measured: inhibition of proliferation

MERAGVPGFSPRRSSVEAKMQSTSCSVRKSSTVTAWPAVVLLLSWGQRRGG-OH [HMMW-I]
significantly inhibit: [1] | [2] | [3] | [4] | [5] | [6] | [7] | [8]
